# Source: patent US20150225369A1, “DDR2 INHIBITORS FOR THE TREATMENT OF OSTEOARTHRITIS” (Merck Patent GmbH, priority 2012, published 2015)
# Molecular target: T1, HEK293 transfected with human DDR2 (Homo sapiens, UniProt Q16832)
# T1 construct: expressed in transfected cells; host or cells: HEK293 (PLT460F_(DDR2)-P7-1)
# T1 sequence (Q16832 22-855): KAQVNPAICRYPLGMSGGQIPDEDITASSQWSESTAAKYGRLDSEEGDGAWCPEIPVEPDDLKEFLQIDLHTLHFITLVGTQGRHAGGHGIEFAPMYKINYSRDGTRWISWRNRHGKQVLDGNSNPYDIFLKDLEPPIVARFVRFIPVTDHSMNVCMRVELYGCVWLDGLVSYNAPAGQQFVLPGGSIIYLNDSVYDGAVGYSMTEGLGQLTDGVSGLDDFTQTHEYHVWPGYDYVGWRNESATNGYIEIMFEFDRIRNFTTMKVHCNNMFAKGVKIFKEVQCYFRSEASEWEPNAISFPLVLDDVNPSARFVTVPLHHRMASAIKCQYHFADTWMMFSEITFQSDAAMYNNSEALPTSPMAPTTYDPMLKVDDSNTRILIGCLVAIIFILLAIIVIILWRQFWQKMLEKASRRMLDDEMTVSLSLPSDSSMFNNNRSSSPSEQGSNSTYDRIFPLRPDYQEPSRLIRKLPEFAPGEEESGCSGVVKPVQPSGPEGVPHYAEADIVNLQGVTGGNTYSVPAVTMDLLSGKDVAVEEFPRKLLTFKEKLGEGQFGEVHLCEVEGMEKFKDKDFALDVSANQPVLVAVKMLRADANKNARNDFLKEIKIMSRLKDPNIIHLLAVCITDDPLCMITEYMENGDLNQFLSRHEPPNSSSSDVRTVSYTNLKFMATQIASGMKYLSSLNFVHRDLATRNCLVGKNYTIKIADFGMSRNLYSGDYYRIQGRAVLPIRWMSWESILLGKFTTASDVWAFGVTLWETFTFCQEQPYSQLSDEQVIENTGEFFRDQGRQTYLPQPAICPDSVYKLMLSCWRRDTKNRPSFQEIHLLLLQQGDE
# Experiment: Phospho-DDR2 cellular assay (collagen II induced DDR2 phosphorylation, ELISA)
# Format: cell-based
# Settings: cellular phospho-DDR2; read-out: IC50 [p-DDR2]
# Experimental: Assays were performed in a 384 well plate format, using cell line HEK293 transfected with human DDR2 (PLT460F_(DDR2)-P7-1)
# Cells were seeded at a density of 10'000 cells/well in 384well poly-D-lysine coated Black/clear plate (Cellcoat Greiner) and incubated in DMEM medium in the presence of 10% fetal bovine serum at 37° C., 5% CO2 for 48 h. Medium was replaced by serum-free medium and cells were incubated at 37° C., 5% CO2 for 8 h. Compound to be tested in 5% DMSO or 5% DMSO and 50 μg/ml of chicken collagen II were added and cells were incubated at 37° C., 5% CO2 for 16 h
# Cells were rinsed with ice-cold PBS, lysed with lysis buffer (M-PER Thermo #78501) for 30 min at room temperature and centrifuged for 1 min at 1000 RPM. In parallel, White High binding 384 well plates (Corning) were coated with mouse anti-human DDR2 capture antibody (R&D Systems kit DuoSet IC Human phospho-DDR2 ELISA), overnight at RT.
# An aliquot of cell lysate was transferred to the coated plates and incubated for 2 h at RT. Plates were washed and mouse anti-phospho-tyrosine detection antibody (R&D Systems kit DuoSet IC Human phospho-DDR2 ELISA) conjugated to horse radish peroxidase (HRP) was added for 2 h at RT. Plates were washed and chemiluminescent substrate for HRP (Thermo) was added for 15 min at RT. Luminescence was measured on a luminometer.
row,SMILES,IC50
1,"CNC(=O)Cc1ccc(C(F)(F)F)cc1NC(=O)NCc1ccc(Oc2ccnc(C(=O)NC)c2)c(C)c1 [compound 200, 4-{2-Methyl-4-[3-(2-methylcarbamoylmethyl-5-trifluoromethyl-phenyl)-ureidomethyl]-phenoxy}-pyridine-2-carboxylic acid methylamide]",455 nM
2,"CNC(=O)c1cc(Oc2ccc(CNC(=O)Nc3cc(C(F)(F)F)ccc3-n3cncn3)cc2)ccn1 [compound 201, 4-{4-[3-(2-[1,2,4]Triazol-1-yl-5-trifluoromethyl-phenyl)-ureidomethyl]-phenoxy}-pyridine-2-carboxylic acid methylamide]",41 nM
3,"CNC(=O)c1cc(Oc2ccc(CNC(=O)Nc3cc(C(F)(F)F)ccc3-n3ccnn3)cc2)ccn1 [compound 206, 4-{4-[3-(2-[1,2,3]Triazol-1-yl-5-trifluoromethyl-phenyl)-ureidomethyl]-phenoxy}-pyridine-2-carboxylic acid methylamide]",31 nM
4,"CNC(=O)c1cc(Oc2ccc(CNC(=O)Nc3cc(C(F)(F)F)ccc3CC(N)=O)cc2)ccn1 [compound 209, 4-{4-[3-(2-Carbamoylmethyl-5-trifluoromethyl-phenyl)-ureidomethyl]-phenoxy}-pyridine-2-carboxylic acid methylamide]",985 nM
5,"CNC(=O)c1cc(Oc2ccc(CNC(=O)Nc3cc(C(F)(F)F)ccc3CNC(C)=O)cc2C)ccn1 [compound 214, 4-(4-{3-[2-(Acetylamino-methyl)-5-trifluoromethyl-phenyl]-ureidomethyl}-2-methyl-phenoxy)-pyridine-2-carboxylic acid methylamide]",45 nM
6,"CNC(=O)c1cc(Oc2ccc(CNC(=O)Nc3cc(C)c(Cl)cc3-n3cccc3)cc2)ccn1 [compound 219, 4-{4-[3-(4-Chloro-5-methyl-2-pyrrol-1-yl-phenyl)-ureidomethyl]-phenoxy}-pyridine-2-carboxylic acid methylamide]",114 nM
7,"CNC(=O)c1cc(Oc2ccc(CNC(=O)Nc3cc(C(F)(F)F)ccc3CC(=O)O)cc2C)ccn1 [compound 220, (2-{3-[3-Methyl-4-(2-methylcarbamoyl-pyridin-4-yloxy)-benzyl]-ureido}-4-trifluoromethyl-phenyl)-acetic acid]",23500 nM
8,"CNC(=O)c1cc(Oc2ccc(CNC(=O)Nc3cc(C(C)(C)C)n[nH]3)cc2)ccn1 [compound 223, 4-{4-[3-(5-tert-Butyl-2H-pyrazol-3-yl)-ureidomethyl]-phenoxy}-pyridine-2-carboxylic acid methylamide]",7950 nM
9,"CNC(=O)c1cc(Oc2ccc(CNC(=O)Nc3ccc(N4CCOCC4=O)c(Cl)c3)cc2)ccn1 [compound 225, 4-(4-{3-[3-Chloro-4-(3-oxo-morpholin-4-yl)-phenyl]-ureidomethyl}-phenoxy)-pyridine-2-carboxylic acid methylamide]",8800 nM
10,"CNC(=O)c1cc(Oc2ccc(CNC(=O)Nc3cc(C(F)(F)F)ccc3-n3cncn3)cc2F)ccn1 [compound 235, 4-{2-Fluoro-4-[3-(2-[1,2,4]triazol-1-yl-5-trifluoromethyl-phenyl)-ureidomethyl]-phenoxy}-pyridine-2-carboxylic acid methylamide]",27 nM

# Further compounds by falling IC50, results first:
row,IC50,SMILES
1,7500 nM,"CNC(=O)c1cc(Oc2ccc(CNC(=O)Nc3ccccc3CO)cc2C)ccn1 [compound 198, 4-{4-[3-(2-Hydroxymethyl-phenyl)-ureidomethyl]-2-methyl-phenoxy}-pyridine-2-carboxylic acid methylamide]"
2,2050 nM,"CNC(=O)c1cc(Oc2ccc(CNC(=O)Nc3cc(C)on3)cc2)ccn1 [compound 236, 4-{4-[3-(5-Methyl-isoxazol-3-yl)-ureidomethyl]-phenoxy}-pyridine-2-carboxylic acid methylamide]"
3,1500 nM,"CNC(=O)c1cc(Oc2ccc(CNC(=O)Nc3cccc(N(C)C)c3)cc2)ccn1 [compound 228, 4-{4-[3-(3-Dimethylamino-phenyl)-ureidomethyl]-phenoxy}-pyridine-2-carboxylic acid methylamide]"
4,1100 nM,"CNC(=O)c1cc(Oc2ccc(CNC(=O)N3C(=O)Cc4ccc(C(F)(F)F)cc43)cc2)ccn1 [compound 205, 2-Oxo-6-trifluoromethyl-2,3-dihydro-indole-1-carboxylic acid 4-(2-methylcarbamoyl-pyridin-4-yloxy)-benzylamide]"
5,855 nM,"CNC(=O)c1cc(Oc2ccc(CNC(=O)Nc3cc(C(F)(F)F)ccc3CN3CCNCC3=O)cc2)ccn1 [compound 208, 4-(4-{3-[2-(2-Oxo-piperazin-1-ylmethyl)-5-trifluoromethyl-phenyl]-ureidomethyl}-phenoxy)-pyridine-2-carboxylic acid methylamide]"
6,575 nM,"CNC(=O)c1cc(Oc2ccc(CNC(=O)Nc3nnc(C(F)(F)F)s3)cc2)ccn1 [compound 222, 4-{4-[3-(5-Trifluoromethyl-[1,3,4]thiadiazol-2-yl)-ureidomethyl]-phenoxy}-pyridine-2-carboxylic acid methylamide]"
7,285 nM,"CNC(=O)c1cc(Oc2ccc(CNC(=O)Nc3cc(C(F)(F)F)ccc3CC(N)=O)cc2C)ccn1 [compound 207, 4-{4-[3-(2-Carbamoylmethyl-5-trifluoromethyl-phenyl)-ureidomethyl]-2-methyl-phenoxy}-pyridine-2-carboxylic acid methylamide]"
8,180 nM,"CNC(=O)c1cc(Oc2ccc(CNC(=O)Nc3cc(C(F)(F)F)ccc3CN)cc2C)ccn1 [compound 221, 4-{4-[3-(2-Aminomethyl-5-trifluoromethyl-phenyl)-ureidomethyl]-2-methyl-phenoxy}-pyridine-2-carboxylic acid methylamide]"
9,72 nM,"CNC(=O)c1cc(Oc2ccc(CNC(=O)Nc3ccc(C)c(Cl)c3)cc2F)ccn1 [compound 234, 4-{4-[3-(3-Chloro-4-methyl-phenyl)-ureidomethyl]-2-fluoro-phenoxy}-pyridine-2-carboxylic acid methylamide]"
10,38 nM,"CNC(=O)c1cc(Oc2ccc(CNC(=O)Nc3cc(C(F)(F)F)ccc3O)cc2C)ccn1 [compound 204, 4-{4-[3-(2-Hydroxy-5-trifluoromethyl-phenyl)-ureidomethyl]-2-methyl-phenoxy}-pyridine-2-carboxylic acid methylamide]"
11,27 nM,"CNC(=O)c1cc(Oc2ccc(CNC(=O)Nc3cccc(C(F)(F)F)c3)cc2F)ccn1 [compound 233, 4-{2-Fluoro-4-[3-(3-trifluoromethyl-phenyl)-ureidomethyl]-phenoxy}-pyridine-2-carboxylic acid methylamide]"
12,19 nM,"CNC(=O)c1cc(Oc2ccc(CNC(=O)Nc3cc(C(F)(F)F)ccc3-n3ccnn3)cc2C)ccn1 [compound 203, 4-{2-Methyl-4-[3-(2-[1,2,3]triazol-1-yl-5-trifluoromethyl-phenyl)-ureidomethyl]-phenoxy}-pyridine-2-carboxylic acid methylamide]"
13,14 nM,"CNC(=O)c1cc(Oc2ccc(CNC(=O)Nc3cc(C(F)(F)F)ccc3-n3cncn3)cc2C)ccn1 [compound 202, 4-{2-Methyl-4-[3-(2-[1,2,4]triazol-1-yl-5-trifluoromethyl-phenyl)-ureidomethyl]-phenoxy}-pyridine-2-carboxylic acid methylamide]"
